According to patent publication EP4653017A1, “ANTIBODY-DRUG CONJUGATE AND USE THEREOF” (Tyligand Bioscience (Shanghai) Limited, priority 2023, dated 2024):
Where a name gives a salt, the structure may show the parent alone. Read-outs that look alike come from different tables or passages of the source.

How the values were obtained:
[1] = tested on: THP-1 cells; assay: Activation of IFN-β secretion by THP-1 cells (IFN-beta ELISA); type: cell-based, human; conditions: for STING agonist activity (in words): EC50 stronger than 2',3'-cGAMP, comparable to ADU-S100; for EC50: read-out: THP-1 activity
[2] = tested on: CT26 cells; assay: Inhibition of CT26 cell proliferation (CellTiter-Glo); type: cell-based, mouse; conditions: for IC50: read-out: CT-26 activity; for inhibitory ability on growth of CT26 tumor cells in vitro (in words): superior to ADU-S100
Protocol: CT26 cells are a mouse colorectal cancer cell line. In this experiment, CellTiter-Glo Luminescence Cell Viability Assay kit from Promega was used to assess the inhibitory activity of the compounds on CT26 cell proliferation.
When CT26 cells (ATCC #CRL-2638) were revived, the cryovial was rapid shaken in a 37°C water bath to thaw with 1 min. The thawed cell suspension was mixed well with DMEM medium (GE Company, Cat. No. #SH30243.01) containing 10% FBS (GIBCO, Cat. No. #10099-141), centrifuged at 1000 rpm for 5 min, and the supernatant was discarded. The cell pellet was resuspended in 5 mL of complete medium (DMEM medium containing 10% FBS), placed in a cell culture flask with a bottom area of 25 cm^2, and cultured in a cell incubator at 37°C, 5% CO2, and 95% humidity. Passage was performed when the confluence rate of cells reached 70%~80%. Referring to the cell passage method at plating, all cells in the flask were transferred to a 15 mL centrifuge tube, centrifuged at 1000 rpm for 5 minutes, and the supernatant was discarded. The cell pellet was resuspended in 5 mL of new complete medium, 1 mL was placed in a cell culture flask with a bottom area of 25 cm^2, and 4 mL of fresh complete medium was added to continue the culture. Plating was performed when the cell confluence rate of cells reached 70% to 80% again. Referring to the cell passage method at plating, 1/5 of the cell suspension was maintained and the remaining 4/5 of the cell suspension was placed in a 15 mL centrifuge tube. The cells were centrifuged, the old medium was discarded, the cells was washed once with DMEM medium (without serum), and centrifuged to remove the supernatant. Cells were resuspended with DMEM medium (without serum). […]. A cell suspension at a density of 1.1 x 10^4 viable cells/mL was prepared using DMEM medium (without serum) and 90 µL of the cell suspension was added to 96-well clear flat-bottom black-walled cell culture plate wells (Corning, Cat. No. #3603) to yield a cell density of 1000 viable cells/well in the plate. A control group without cells, without compounds, and with complete medium only (i.e., culture medium control) was set up, and a control group without compounds and with cells (i.e., cell control) was set up. The plates were incubated overnight in a cell incubator.
A DMSO stock solution of 10 mM compound was first serially diluted at a 3.16-fold dilution ratio with DMSO (Sigma, Cat. No. #D2650) to a ninth concentration and a tenth concentration of DMSO control without compound was set. DMSO solutions containing different concentrations of the compound were then diluted a 10-fold dilution ratio with PBS (Solarbio company, Cat. No. #P1020) to achieve a DMSO content of 10% in each concentration of the compound solution. Finally, 10 µL of the above solution was added to the corresponding cell culture plate to achieve a starting concentration of 100 µM compound, a 3.16-fold dilution ratio of adjacent concentrations, and a DMSO content of 1% in the cell culture plate. The plates were maintained in a cell incubator for an additional 120 hours.
After 120 hours, the CellTiter-Glo reagent (Promega, Cat. No. #G7572) was thawed and the plate was equilibrated at room temperature for 30 min. Then, 100 µL CellTiter-Glo was added to each well of the plate and shaken on an orbital shaker for 5 min to fully lyse the cells. The plate was placed at room temperature for 20 min to stabilize the cold light signal, and the cold light value of each well was scanned with a multifunctional microplate reader (Molecular Devices, Spectramax M3) at full wavelength.
The compound of the present invention and ADU-S100 (MCE, Cat. No. #HY12885A) were used as controls: Clofarabine (Wuhu Huaren Technology, Cat. No. #HR-00701002), Cladribine (CSNpharm, Cat. No. #CSN10004), Gemcitabine Hydrochloride (Shaoyuan, Cat. No. #SY014538), Gemcitabine Prodrug LY2334737 (home-made). […]

[3] = tested on: CT26 cells; assay: CT26 syngeneic mouse bilateral transplanted tumor model; type: in vivo, BALB/c mice; conditions: for growth inhibition rates of left tumors: left (untreated) tumor, 50 µg compound/mouse (2.5 mg/kg) intratumorally into right flank on days 0 and 4, day 13 after treatment; for tumor growth inhibition rate: right (treated) tumor, 50 µg compound/mouse (2.5 mg/kg) intratumorally on days 0 and 4, 13 days post treatment
Protocol: When tumors grew to an average volume of 100 mm^3, treatments were randomized and started based on tumor size and mouse body weight. The first day of dosing was Day 0. Two doses were administered, 50 µg compound/mouse (i.e., 2.5 mg/kg) was injected intratumorally into the right flank on days 0 and 4, and the same volume of PBS (Hyclone Company, Cat. No. #SH30258.01) was used as a control. The left tumor was left untreated. Control mice were sacrificed after 13 days of dosing and treated mice were sacrificed 21 days later. During the experiment, the tumor volume and body weight were measured three times a week on the left and right sides, and the tumor volume was calculated as V = D × d × d/2 (wherein D represents the long diameter of the tumor and d represents the short diameter of the tumor).

[4] = tested on: A20; assay: Inhibition of tumor cell line proliferation (Table 3), A20; type: cell-based; conditions: A20, Mouse B lymphoma cells
[5] = tested on: A375; assay: Inhibition of tumor cell line proliferation (Table 3), A375; type: cell-based; conditions: A-375; A375, Human melanoma cells
[6] = tested on: B16F10; assay: Inhibition of tumor cell line proliferation (Table 3), B16F10; type: cell-based; conditions: B16-F10; B16F10, Mouse melanoma cells
[7] = tested on: Daudi; assay: Inhibition of tumor cell line proliferation (Table 3), Daudi; type: cell-based; conditions: Human Burkitt's lymphoma cells
[8] = tested on: FaDu; assay: Inhibition of tumor cell line proliferation (Table 3), FaDu; type: cell-based; conditions: Human pharyngeal squamous carcinoma cell
[9] = tested on: H22; assay: Inhibition of tumor cell line proliferation (Table 3), H22; type: cell-based; conditions: H22, Mouse hepatoma cells
[10] = tested on: MC38; assay: Inhibition of tumor cell line proliferation (Table 3), MC38; type: cell-based; conditions: MC-38; MC38, Mouse colon cancer cells
[11] = tested on: SK-MEL5; assay: Inhibition of tumor cell line proliferation (Table 3), SK-MEL5; type: cell-based; conditions: SK-MEL-5; SK-MEL5, Human melanoma cells
[12] = tested on: 4T1; assay: Inhibition of tumor cell line proliferation (Table 3), 4T1; type: cell-based; conditions: 4T1, Mouse breast cancer cells
[13] = Mus musculus, CT26, 120 hours incubation, CellTiter-Glo
[14] = IFN-β secretion, 24 hours incubation, ELISA

| Compound | STING agonist activity (in words) [1] | EC50 ([1]; Homo sapiens, THP-1, 24 h) [µM] | IC50 ([2]; Mus musculus, CT26, 120 h) [nM] | inhibitory ability on growth of CT26 tumor cells in vitro (in words) [2] | growth inhibition rates of left tumors [3] [%] | other results |
| --- | --- | --- | --- | --- | --- | --- |
| Nc1nc2c(ncn2C2OC3COP(=O)(S)OC4CC(n5cnc6c(N)ncnc65)OC4COP(=O)(S)OC3C2O)c(=O)[nH]1 (stereo not shown) [CDN-12] | significant STING agonist activity | 1 to 10 |  |  |  |  |
| Nc1nc2c(ncn2C2OC3COP(=O)(S)OC4C(COP(=O)(S)OC2C3O)OC(n2cnc3c(N)ncnc32)C4F)c(=O)[nH]1 (stereo not shown) [CDN-11] | significant STING agonist activity | 1 to 10 |  |  |  |  |
| Nc1nc(Cl)nc2c1ncn2[C@@H]1O[C@H](CO)[C@@H](O)[C@@H]1F [Clofarabine, clofarabine, reference compound] |  |  |  |  |  | IC50 [2, 13]: < 1000 nM |
| CNc1nc(N)c2ncn([C@@H]3O[C@@H]4CO[P@@](=O)(S)O[C@@H]5[C@H](O)[C@@H](CO[P@@](=O)(S)O[C@H]4[C@@H]3F)O[C@H]5n3cnc4c(=O)[nH]c(N)nc43)c2n1 [CDN-8, (2',3')-cyclo-(Rp,Rp) - [2'-O-thiophosphodiester-guanosine]-[3'-O-thiophosphodiester-2-methylamino-2'-deoxy-2'-fluoro-beta-adenosine] diammonium salt] | significant STING agonist activity | 1 to 10 | 1000 to 10000 | particularly significant inhibitory ability |  |  |
| Nc1nc2c(ncn2[C@@H]2O[C@@H]3CO[P@](=O)(S)O[C@H]4[C@H](F)[C@H](n5cnc6c(N)nc(Cl)nc65)O[C@@H]4CO[P@@](=O)(S)O[C@@H]2[C@@H]3O)c(=O)[nH]1 [CDN-7, (2',3')-cyclo-(Rp,Sp)-[2'-O-thiophosphodiester-guanosine]-[3'-O-thiophosphodiester-2-chloro-2'-deoxy-2'-fluoro-beta-adenosine]diammonium salt] |  | 10.1 to 100 |  |  |  |  |
| Nc1nc(Cl)nc2c1ncn2[C@H]1C[C@H](O)[C@@H](CO)O1 [Cladribine, cladribine, reference compound] |  |  |  |  |  | IC50 [2, 13]: < 1000 nM |
| N.N.Nc1nc2c(ncn2C2OC3COP(=O)(S)OC4C(COP(=O)(S)OC2C3O)OC(n2cnc3c(N)nc(F)nc32)C4O)c(=O)[nH]1 (stereo not shown) [CDN-2, (2',3')-cyclo-(Rp,Rp)-[2'-O-thiophosphodiester-guanosine]-[3'-O-thiophosphodiester-2-fluoro-adenosine]diammonium salt] | significant STING agonist activity |  |  | particularly significant inhibitory ability |  | EC50 [1, 14]: 1 to 10 µM |
| (3',3')-cyclo-(Rp,Rp)-[3'-O-thiophosphodiester-guanosine]-[3'-O-thiophosphodiester-2-chloro-2'-deoxy-adenosine]diammonium salt [CDN-6] | significant STING agonist activity |  |  | particularly significant inhibitory ability | 67.4 | EC50 [1, 14]: 1 to 10 µM; IC50 ([2]; 120 hours incubation, CellTiter-Glo): 1000 to 10000 nM; tumor growth inhibition rate [3]: 99.5% |
| Nc1ncnc2c1ncn2[C@@H]1O[C@@H]2CO[P@@](=O)(S)O[C@@H]3[C@H](O)[C@@H](CO[P@@](=O)(S)O[C@H]2[C@H]1O)O[C@H]3n1cnc2c(N)ncnc21 [ADU-S100, reference compound] |  | 1 to 10 | > 10000 |  | 64.2 | IC50 [4]: 5.3 µM; IC50 [5]: > 10 µM; IC50 [6]: > 10 µM; IC50 [7]: > 10 µM; IC50 [8]: > 10 µM; IC50 [9]: > 10 µM; IC50 [10]: > 10 µM; IC50 [11]: > 10 µM; IC50 [12]: > 10 µM; tumor growth inhibition rate [3]: 99.1% |
| Nc1nc2c(ncn2[C@@H]2O[C@@H]3CO[P@@](=O)(S)O[C@H]4[C@H](F)[C@H](n5cnc6c(N)nc(Cl)nc65)O[C@@H]4CO[P@@](=O)(S)O[C@H]3[C@H]2O)c(=O)[nH]1 [CDN-5, (3',3')-cyclo-(Rp,Rp)-[3'-O-thiophosphodiester-guanosine]-[3'-O-thiophosphodiester-2-chloro-2'-deoxy-2'-fluoro-beta-adenosine]diammonium salt] | significant STING agonist activity | 1 to 10 | 1000 to 10000 | particularly significant inhibitory ability | 71.7 |  |
| (2',3')-cyclo-(Rp,Rp)-[2'-O-dithiophosphodiester-guanosine]-[3'-O-dithiophosphate diester -2-amino-3-methoxy-adenosine]diammonium salt [CDN-1] |  |  |  | particularly significant inhibitory ability |  | EC50 [1, 14]: 10.1 to 100 µM |
| Nc1ccn([C@@H]2O[C@H](CO)[C@@H](O)C2(F)F)c(=O)n1 [Gemcitabine, Gemcitabine Hydrochloride, reference compound] |  |  |  |  |  | IC50 [2, 13]: < 1000 nM |
| Nc1nc2c(ncn2[C@@H]2O[C@@H]3CO[P@@](=O)(S)O[C@H]4C[C@H](n5cnc6c(N)nc(Cl)nc65)O[C@@H]4CO[P@@](=O)(S)O[C@@H]2[C@@H]3O)c(=O)[nH]1 [CDN-4, (2',3')-cyclo-(Rp,Rp)-[2'-O-thiophosphodiester-guanosine]-[3'-O-thiophosphodiester-2-chloro-2'-deoxy-adenosine]diammonium salt] | significant STING agonist activity | 1 to 10 | 1000 to 10000 | particularly significant inhibitory ability | 75.3 |  |
